Results published in the NIST ThermoML archive (doi:10.1016/j.jct.2015.09.002).

Experiment: xn = mol fraction of the nth substance listed
Details: 93.2 kPa, Liquid, Vibrating tube method

CCCCNCCCC [dibutylamine] + CC#N
mass density [kg/m3]
Details | 293.15 K | 298.15 K | 303.15 K | 308.15 K
x2 = 0 | 759.7 | 755.61 | 751.5 | 747.38
x2 = 0.0695 | 760.49 | 756.33 | 752.17 | 748
x2 = 0.081 | 760.6 | 756.44 | 752.27 | 748.08
x2 = 0.1023 | 760.85 | 756.68 | 752.5 | 748.3
x2 = 0.1527 | 761.32 | 757.12 | 752.9 | 748.66
x2 = 0.2029 | 761.82 | 757.58 | 753.32 | 749.05
x2 = 0.2499 | 762.19 | 757.95 | 753.65 | 749.34
x2 = 0.2996 | 762.67 | 758.39 | 754.06 | 749.71
x2 = 0.3542 | 763.23 | 758.88 | 754.51 | 750.12
x2 = 0.3978 | 763.73 | 759.35 | 754.95 | 750.52
x2 = 0.47 | 764.62 | 760.17 | 755.7 | 751.19
x2 = 0.4987 | 764.98 | 760.52 | 756.02 | 751.49
x2 = 0.5498 | 765.74 | 761.23 | 756.67 | 752.09
x2 = 0.6001 | 766.63 | 762.05 | 757.43 | 752.78
x2 = 0.6499 | 767.62 | 762.97 | 758.29 | 753.59
x2 = 0.6991 | 768.71 | 763.99 | 759.24 | 754.46
x2 = 0.7496 | 770.07 | 765.28 | 760.44 | 755.59
x2 = 0.8 | 771.64 | 766.75 | 761.82 | 756.87
x2 = 0.8494 | 773.46 | 768.5 | 763.47 | 758.42
x2 = 0.8994 | 775.72 | 770.63 | 765.48 | 760.32
x2 = 0.9293 | 777.27 | 772.08 | 766.87 | 761.62
x2 = 0.9394 | 777.86 | 772.65 | 767.41 | 762.14
x2 = 0.9498 | 778.5 | 773.27 | 768 | 762.7
x2 = 0.9596 | 779.13 | 773.86 | 768.55 | 763.23
x2 = 0.9699 | 779.82 | 774.53 | 769.19 | 763.83
x2 = 0.9799 | 780.54 | 775.22 | 769.85 | 764.46
x2 = 0.9897 | 781.26 | 775.91 | 770.51 | 765.09
